Assays:
CRBN-DDB1 = CRBN-DDB1 (Homo sapiens, UniProt Q96SW2); assay: Compound binding to CRBN by HTRF assay; conditions: CRBN-DDB1 2.5 nM, Cy5-Thalidomide 100 nM, 30 min at ambient temperature; read-out: HTRF Class (Cereblon binding, HTRF IC50)
Method in brief: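 Cy5-thalidomide (100 nM) displacement from His-tagged CRBN-DDB1 (2.5 nM) read by terbium-cryptate HTRF (665/620 nm), in 20 mM HEPES, 20 mM NaCl, 0.2 mM TCEP, 0.2 mM EDTA, 0.005% Tween20. Compounds tested as 10-point 1:3 series, 30 min at ambient temperature. Signal normalised to DMSO and lenalidomide controls; IC50 fitted, Ki by Cheng-Prusoff.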

GSPT1 = molecular target: T1, GSPT1 (Homo sapiens, UniProt P15170+Q96SW2); assay: Immunofluorescence assay for activity to degrade GSPT1 in CAL-51 cells; type: cell-based; conditions: 6 h treatment, read-out: IF Class (GSPT1 degradation, DC50)
T1 construct: CAL-51 cells were purchased from DSMZ (cat. Number ACC302); host or cells: CAL-51
T1 sequence (P15170 whole entry): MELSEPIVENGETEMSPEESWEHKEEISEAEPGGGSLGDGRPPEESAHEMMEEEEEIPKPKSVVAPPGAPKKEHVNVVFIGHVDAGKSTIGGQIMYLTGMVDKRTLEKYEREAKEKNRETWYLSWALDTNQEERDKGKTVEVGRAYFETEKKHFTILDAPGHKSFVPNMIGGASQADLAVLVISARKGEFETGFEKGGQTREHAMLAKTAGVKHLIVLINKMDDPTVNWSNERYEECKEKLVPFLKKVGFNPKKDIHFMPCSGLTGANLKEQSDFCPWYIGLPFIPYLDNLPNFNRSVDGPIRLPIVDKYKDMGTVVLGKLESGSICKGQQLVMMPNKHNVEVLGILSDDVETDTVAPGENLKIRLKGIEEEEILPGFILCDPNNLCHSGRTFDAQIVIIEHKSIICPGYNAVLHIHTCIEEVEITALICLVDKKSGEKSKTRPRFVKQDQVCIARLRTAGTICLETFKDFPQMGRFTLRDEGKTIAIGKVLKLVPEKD
T1 sequence (Q96SW2 whole entry): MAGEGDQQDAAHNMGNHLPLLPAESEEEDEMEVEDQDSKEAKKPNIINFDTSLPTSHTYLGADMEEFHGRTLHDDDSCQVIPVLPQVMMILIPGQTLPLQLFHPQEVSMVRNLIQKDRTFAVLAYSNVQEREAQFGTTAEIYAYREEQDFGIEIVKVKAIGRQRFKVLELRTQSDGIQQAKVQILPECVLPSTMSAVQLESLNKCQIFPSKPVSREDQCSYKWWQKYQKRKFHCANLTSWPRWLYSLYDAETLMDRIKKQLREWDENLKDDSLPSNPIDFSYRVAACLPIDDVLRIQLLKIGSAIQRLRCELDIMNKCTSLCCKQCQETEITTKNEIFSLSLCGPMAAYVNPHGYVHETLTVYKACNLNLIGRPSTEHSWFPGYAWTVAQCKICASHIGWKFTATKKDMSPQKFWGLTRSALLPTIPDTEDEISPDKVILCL
T1 sequence (Q16531 2-1140 partner limits assumed): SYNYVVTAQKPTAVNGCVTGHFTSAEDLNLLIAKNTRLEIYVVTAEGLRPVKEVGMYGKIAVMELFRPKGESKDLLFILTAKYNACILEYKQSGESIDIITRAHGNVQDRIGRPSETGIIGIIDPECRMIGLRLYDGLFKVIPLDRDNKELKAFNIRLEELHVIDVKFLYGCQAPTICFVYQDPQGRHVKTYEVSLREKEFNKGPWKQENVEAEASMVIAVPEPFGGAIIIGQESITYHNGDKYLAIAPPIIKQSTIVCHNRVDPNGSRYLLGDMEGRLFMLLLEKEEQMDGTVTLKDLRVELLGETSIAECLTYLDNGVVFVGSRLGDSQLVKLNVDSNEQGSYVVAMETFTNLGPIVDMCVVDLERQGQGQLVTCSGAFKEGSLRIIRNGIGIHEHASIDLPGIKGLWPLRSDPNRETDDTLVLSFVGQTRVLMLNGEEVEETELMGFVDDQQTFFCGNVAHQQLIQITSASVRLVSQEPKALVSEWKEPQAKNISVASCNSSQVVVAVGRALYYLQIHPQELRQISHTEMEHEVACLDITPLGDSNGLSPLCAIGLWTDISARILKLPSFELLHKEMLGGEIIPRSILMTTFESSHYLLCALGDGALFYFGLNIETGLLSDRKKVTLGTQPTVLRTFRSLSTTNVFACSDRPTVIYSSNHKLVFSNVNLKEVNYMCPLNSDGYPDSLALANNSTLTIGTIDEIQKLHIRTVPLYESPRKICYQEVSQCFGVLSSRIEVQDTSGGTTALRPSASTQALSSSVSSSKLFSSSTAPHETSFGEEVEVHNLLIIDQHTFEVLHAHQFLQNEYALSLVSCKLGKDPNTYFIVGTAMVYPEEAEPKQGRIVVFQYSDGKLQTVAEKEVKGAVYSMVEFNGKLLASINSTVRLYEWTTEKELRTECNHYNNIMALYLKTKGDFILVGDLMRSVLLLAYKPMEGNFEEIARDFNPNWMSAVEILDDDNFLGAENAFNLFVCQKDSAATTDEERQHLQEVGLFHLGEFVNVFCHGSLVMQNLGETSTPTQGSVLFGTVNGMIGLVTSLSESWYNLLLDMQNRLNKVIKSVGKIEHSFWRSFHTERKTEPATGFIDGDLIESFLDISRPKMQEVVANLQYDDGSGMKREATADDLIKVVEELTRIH
Method in brief: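 CAL-51 cells treated 6 h with compound (30 μM to 0.1 nM), fixed, immunostained for GSPT1 with DAPI and phalloidin counterstains, imaged by high-content microscopy. Mean per-cell GSPT1 intensity normalized to controls; DC50 by non-linear regression.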

CRBN-DDB1, sequence (Q96SW2 whole entry): as the sequence (Q96SW2 whole entry) above
CRBN-DDB1, sequence (Q16531 whole entry partner): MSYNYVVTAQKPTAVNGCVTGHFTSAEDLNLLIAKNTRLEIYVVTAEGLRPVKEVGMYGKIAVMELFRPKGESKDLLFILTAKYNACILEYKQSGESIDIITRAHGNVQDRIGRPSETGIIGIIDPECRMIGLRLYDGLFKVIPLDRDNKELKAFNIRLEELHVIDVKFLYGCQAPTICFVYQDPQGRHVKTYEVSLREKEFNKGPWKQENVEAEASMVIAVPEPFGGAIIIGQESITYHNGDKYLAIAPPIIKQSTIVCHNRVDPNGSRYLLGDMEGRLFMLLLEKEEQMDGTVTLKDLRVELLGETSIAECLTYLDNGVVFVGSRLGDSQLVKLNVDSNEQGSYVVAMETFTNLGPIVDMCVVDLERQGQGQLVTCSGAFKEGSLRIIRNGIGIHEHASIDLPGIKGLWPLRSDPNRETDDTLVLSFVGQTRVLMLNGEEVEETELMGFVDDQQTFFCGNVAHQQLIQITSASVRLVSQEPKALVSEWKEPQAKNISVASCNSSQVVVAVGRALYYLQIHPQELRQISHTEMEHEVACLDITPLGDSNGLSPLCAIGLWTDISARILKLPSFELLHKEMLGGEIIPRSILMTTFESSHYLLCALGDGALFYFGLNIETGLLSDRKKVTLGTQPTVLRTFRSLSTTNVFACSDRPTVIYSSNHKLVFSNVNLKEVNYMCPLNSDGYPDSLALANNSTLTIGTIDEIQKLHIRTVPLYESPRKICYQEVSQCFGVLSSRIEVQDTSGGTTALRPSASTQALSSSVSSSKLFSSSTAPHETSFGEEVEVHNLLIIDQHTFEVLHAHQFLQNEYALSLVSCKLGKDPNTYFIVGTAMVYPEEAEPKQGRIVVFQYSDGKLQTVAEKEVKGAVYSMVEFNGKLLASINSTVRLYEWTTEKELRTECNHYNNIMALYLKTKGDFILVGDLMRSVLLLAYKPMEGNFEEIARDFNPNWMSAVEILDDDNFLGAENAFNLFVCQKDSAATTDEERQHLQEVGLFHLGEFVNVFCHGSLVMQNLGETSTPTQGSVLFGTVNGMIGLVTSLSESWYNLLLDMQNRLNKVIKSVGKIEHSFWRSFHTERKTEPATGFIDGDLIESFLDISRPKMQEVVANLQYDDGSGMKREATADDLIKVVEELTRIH

Compound | IC50 (CRBN-DDB1) | DC50 (GSPT1)
O=C1CCC(c2c(F)cc(N3CC(OC(=O)NC45CC(N6CCOCC6)(C4)C5)C3)cc2F)C(=O)N1 (stereo not drawn) [Compound 71, 1-(4-(2,6-dioxopiperidin-3-yl)-3,5-difluorophenyl)azetidin-3-yl(3-morpholinobicyclo [1.1.1]pentan-1-yl) carbamate] | 100 to 1000 nM | > 300 nM
COc1cc(C)c(Cl)cc1NC(=O)NC1CN(c2ccc(C3CCC(=O)NC3=O)cc2)C1 (stereo not drawn) [Compound 72, 1-(5-chloro-2-methoxy-4-methylphenyl)-3-(1-(4-(2,6-dioxopiperidin-3-yl)phenyl)azetidin-3-yl)urea] | > 1000 nM | 30 to 300 nM
O=C1CCC(c2c(F)cc(N3CC(NC(=O)NC45CC(c6ccccc6)(C4)C5)C3)cc2F)C(=O)N1 (stereo not drawn) [Compound 73, 1-(1-(4-(2,6-dioxopiperidin-3-yl)-3,5-difluorophenyl)azetidin-3-yl)-3-(3-phenylbicyclo[1.1.1]pentan-1-yl)urea] | 100 to 1000 nM | ≤ 30 nM
COC(=O)C12CC(NC(=O)OC3CN(c4cc(F)c(C5CCC(=O)NC5=O)c(F)c4)C3)(C1)C2 (stereo not drawn) [Compound 75, methyl 3-((((1-(4-(2,6-dioxopiperidin-3-yl)-3,5-difluorophenyl)azetidin-3-yl)oxy)carbonyl)amino)bicyclo[1.1.1]pentane-1-carboxylate] | 100 to 1000 nM | 30 to 300 nM
O=C1CCC(c2c(F)cc(N3CC(OC(=O)N[C@H]4CCOC4)C3)cc2F)C(=O)N1 (stereo partly drawn) [Compound 81, 1-(4-(2,6-dioxopiperidin-3-yl)-3,5-difluorophenyl)azetidin-3-yl ((S)-tetrahydrofuran-3-yl)carbamate] | 100 to 1000 nM | > 300 nM
O=C1CCC(c2c(F)cc(N3CC(OC(=O)NCC4CC4)C3)cc2F)C(=O)N1 (stereo not drawn) [Compound 82, 1-(4-(2,6-dioxopiperidin-3-yl)-3,5-difluorophenyl)azetidin-3-yl (cyclopropylmethyl)carbamate] | 100 to 1000 nM | > 300 nM
O=C1CCC(c2c(F)cc(N3CC(OC(=O)NC4CC4)C3)cc2F)C(=O)N1 (stereo not drawn) [Compound 86, 1-(4-(2,6-dioxopiperidin-3-yl)-3,5-difluorophenyl)azetidin-3-yl cyclopropylcarbamate] | 100 to 1000 nM | > 300 nM
O=C1CCC(c2c(F)cc(N3CC(OC(=O)NCC(F)(F)F)C3)cc2F)C(=O)N1 (stereo not drawn) [Compound 87, 1-(4-(2,6-dioxopiperidin-3-yl)-3,5-difluorophenyl)azetidin-3-yl (2,2,2-trifluoroethyl)carbamate] | 100 to 1000 nM | > 300 nM
O=C1CCC(c2c(F)cc(N3CC(OC(=O)NC4CC(F)(F)C4)C3)cc2F)C(=O)N1 (stereo not drawn) [Compound 88, 1-(4-(2,6-dioxopiperidin-3-yl)-3,5-difluorophenyl)azetidin-3-yl(3,3-difluorocyclobutyl)carbamate] | 100 to 1000 nM | > 300 nM
CC(C)(C)NC(=O)OC1CN(c2cc(F)c(C3CCC(=O)NC3=O)c(F)c2)C1 (stereo not drawn) [Compound 89, 1-(4-(2,6-dioxopiperidin-3-yl)-3,5-difluorophenyl)azetidin-3-yl tert-butylcarbamate] | 100 to 1000 nM | > 300 nM
O=C1CCC(c2c(F)cc(N3CC(OC(=O)NC4CCC4)C3)cc2F)C(=O)N1 (stereo not drawn) [Compound 90, 1-(4-(2,6-dioxopiperidin-3-yl)-3,5-difluorophenyl) azetidin-3-yl cyclobutylcarbamate] | 100 to 1000 nM | > 300 nM
CC1(C)CCC(NC(=O)OC2CN(c3cc(F)c(C4CCC(=O)NC4=O)c(F)c3)C2)CC1 (stereo not drawn) [Compound 93, 1-(4-(2,6-dioxopiperidin-3-yl)-3,5-difluorophenyl)azetidin-3-yl (4,4-dimethylcyclohexyl) carbamate] | ≤ 100 nM | ≤ 30 nM
C[C@H]1CC[C@H](NC(=O)OC2CN(c3cc(F)c(C4CCC(=O)NC4=O)c(F)c3)C2)CC1 (stereo partly drawn) [Compound 124, 1-(4-(2,6-dioxopiperidin-3-yl)-3,5-difluorophenyl)azetidin-3-yl((1R,4R)-4-methylcyclohexyl) carbamate] | ≤ 100 nM | ≤ 30 nM

Next, values leading:

IC50 (CRBN-DDB1) | DC50 (GSPT1) | Compound
100 to 1000 nM | ≤ 30 nM | O=C1CCC(c2c(F)cc(N3CC(OC(=O)NC45CC(C(F)F)(C4)C5)C3)cc2F)C(=O)N1 (stereo not drawn) [Compound 70, 1-(4-(2,6-dioxopiperidin-3-yl)-3,5-difluorophenyl)azetidin-3-yl(3-(difluoromethyl)bicyclo[1.1.1]pentan-1-yl)carbamate]
100 to 1000 nM | > 300 nM | O=C1CCC(c2ccc(N3CC(NC(=O)Nc4cc(OC(F)(F)F)ccn4)C3)cc2)C(=O)N1 (stereo not drawn) [Compound 74, 1-(1-(4-(2,6-dioxopiperidin-3-yl)phenyl)azetidin-3-yl)-3-(4-(trifluoromethoxy)pyridin-2-yl)urea]
≤ 100 nM | ≤ 30 nM | Cc1cc(NC(=O)OC2CN(c3cc(F)c(C4CCC(=O)NC4=O)c(F)c3)C2)ccc1F (stereo not drawn) [Compound 76, 1-(4-(2,6-dioxopiperidin-3-yl)-3,5-difluorophenyl)azetidin-3-yl (4-fluoro-3-methylphenyl)carbamate]
100 to 1000 nM | ≤ 30 nM | O=C1CCC(c2c(F)cc(N3CC(NC(=O)N[C@H]4C[C@H](c5ccccc5)C4)C3)cc2F)C(=O)N1 (stereo partly drawn) [Compound 77, 1-(1-(4-(2,6-dioxopiperidin-3-yl)-3,5-difluorophenyl)azetidin-3-yl)-3-((1R,3R)-3-phenylcyclobutyl)urea]
100 to 1000 nM | ≤ 30 nM | Cc1cc(F)cc(NC(=O)OC2CN(c3cc(F)c(C4CCC(=O)NC4=O)c(F)c3)C2)c1 (stereo not drawn) [Compound 78, 1-(4-(2,6-dioxopiperidin-3-yl)-3,5-difluorophenyl)azetidin-3-yl(3-fluoro-5-methylphenyl)carbamate]
100 to 1000 nM | 30 to 300 nM | O=C1CCC(c2c(F)cc(N3CC(OC(=O)NC4CCCCC4)C3)cc2F)C(=O)N1 (stereo not drawn) [Compound 79, 1-(4-(2,6-dioxopiperidin-3-yl)-3,5-difluorophenyl)azetidin-3-yl cyclohexylcarbamate]
≤ 100 nM | ≤ 30 nM | C[C@H]1C[C@@H](NC(=O)OC2CN(c3cc(F)c(C4CCC(=O)NC4=O)c(F)c3)C2)C1 (stereo partly drawn) [Compound 80, 1-(4-(2,6-dioxopiperidin-3-yl)-3,5-difluorophenyl)azetidin-3-yl ((1S,3S)-3-methylcyclobutyl)carbamate]
100 to 1000 nM | > 300 nM | O=C1CCC(c2c(F)cc(N3CC(OC(=O)N[C@@H]4CCOC4)C3)cc2F)C(=O)N1 (stereo partly drawn) [Compound 83, 1-(4-(2,6-dioxopiperidin-3-yl)-3,5-difluorophenyl)azetidin-3-yl ((R)-tetrahydrofuran-3-yl)carbamate]
100 to 1000 nM | > 300 nM | O=C1CCC(c2c(F)cc(N3CC(OC(=O)N[C@H]4CCCOC4)C3)cc2F)C(=O)N1 (stereo partly drawn) [Compound 84, 1-(4-(2,6-dioxopiperidin-3-yl)-3,5-difluorophenyl)azetidin-3-yl ((S)-tetrahydro-2H-pyran-3-yl)carbamate]
100 to 1000 nM | > 300 nM | O=C1CCC(c2c(F)cc(N3CC(OC(=O)N[C@@H]4CCCOC4)C3)cc2F)C(=O)N1 (stereo partly drawn) [Compound 85, 1-(4-(2,6-dioxopiperidin-3-yl)-3,5-difluorophenyl)azetidin-3-yl((R)-tetrahydro-2H-pyran-3-yl)carbamate]
100 to 1000 nM | 30 to 300 nM | O=C1CCC(c2c(F)cc(N3CC(OC(=O)NCC4CCC4)C3)cc2F)C(=O)N1 (stereo not drawn) [Compound 91, 1-(4-(2,6-dioxopiperidin-3-yl)-3,5-difluorophenyl)azetidin-3-yl (cyclobutylmethyl)carbamate]
100 to 1000 nM | > 300 nM | O=C1CCC(c2c(F)cc(N3CC(OC(=O)NC4CCCC4)C3)cc2F)C(=O)N1 (stereo not drawn) [Compound 92, 1-(4-(2,6-dioxopiperidin-3-yl)-3,5-difluorophenyl)azetidin-3-yl cyclopentylcarbamate]
100 to 1000 nM | > 300 nM | O=C1CCC(c2c(F)cc(N3CC(OC(=O)NC4CCOCC4)C3)cc2F)C(=O)N1 (stereo not drawn) [Compound 94, 1-(4-(2,6-dioxopiperidin-3-yl)-3,5-difluorophenyl)azetidin-3-yl (tetrahydro-2H-pyran-4-yl)carbamate]
100 to 1000 nM | > 300 nM | O=C1CCC(c2c(F)cc(N3CC(OC(=O)NC4COC4)C3)cc2F)C(=O)N1 (stereo not drawn) [Compound 95, 1-(4-(2,6-dioxopiperidin-3-yl)-3,5-difluorophenyl)azetidin-3-yl oxetan-3-ylcarbamate]
100 to 1000 nM | 30 to 300 nM | O=C1CCC(c2c(F)cc(N3CC(OC(=O)NCC4CC(F)(F)C4)C3)cc2F)C(=O)N1 (stereo not drawn) [Compound 96, 1-(4-(2,6-dioxopiperidin-3-yl)-3,5-difluorophenyl)azetidin-3-yl ((3,3-difluorocyclobutyl)methyl)carbamate]
≤ 100 nM | ≤ 30 nM | CC1(C)CC(NC(=O)OC2CN(c3cc(F)c(C4CCC(=O)NC4=O)c(F)c3)C2)C1 (stereo not drawn) [Compound 97, 1-(4-(2,6-dioxopiperidin-3-yl)-3,5-difluorophenyl)azetidin-3-yl (3,3-dimethylcyclobutyl)carbamate]
≤ 100 nM | ≤ 30 nM | C[C@@H](NC(=O)OC1CN(c2cc(F)c(C3CCC(=O)NC3=O)c(F)c2)C1)c1ccccc1 (stereo partly drawn) [Compound 123, 1-(4-(2,6-dioxopiperidin-3-yl)-3,5-difluorophenyl)azetidin-3-yl((R)-1-phenylethyl)carbamate]

Source: patent US20240308976A1, “COMPOUNDS THAT MEDIATE PROTEIN DEGRADATION AND USES THEREOF” (Monte Rosa Therapeutics, Inc., priority 2021, published 2024)
